pIC50: −log10 of the molar value.
Molecular target: T1, Human NaV1.8 (Homo sapiens, UniProt Q9Y5Y9)
T1 construct: expressed in transfected cells
Test: VIPR assay for NaV1.8 compounds (FRET membrane potential)
Type: cell-based
Conditions: Human NaV1.8 HEK293 expressing cell line, channels held open with deltamethrin
Text: The ability of the pyridine derivatives of the formula (I) to inhibit the NaV1.8 channel may be measured using the assay described below.
VIPR Assay for NaV1.8 compounds
This screen is used to determine the effects of compounds on tetrodotoxin-resistant (TTX-R) sodium channels in Human NaV1.8— (HEK293) expressing cell line, utilising the technology of Aurora's fluorescent Voltage/Ion Probe Reader (VIPR). This experiment is based on FRET (Fluorescence Resonance Energy Transfer) and uses two fluorescent molecules. The first molecule, Oxonol (DiSBAC2(3)), is a highly fluorescent, negatively charged, hydrophobic ion that “senses” the trans-membrane electrical potential. In response to changes in membrane potential, it can rapidly redistribute between two binding sites on opposite sides of the plasma membrane. The voltage dependent redistribution is transduced into a ratiometric fluorescent readout via a second fluorescent molecule (Coumarin (CC2-DMPE)) that binds specifically to one face of the plasma membrane and functions as a FRET partner to the mobile voltage-sensing ion. To enable the assay to work, the channels have to be pharmacologically held in the open state. This is achieved by treating the cells with either deltamethrin (for NaV1.8) or veratridine (for the SHSY-5Y assay for TTX-S channels).
Human NaV1.8 cells are grown in T225 flasks, in a 5% CO2 humidified incubator to about 70% confluence. Media composition consists of DMEM/F-12, 10% FCS and 300 μg/ml Geneticine. They are split using cell dissociation fluid 1:5 to 1:20, depending on scheduling needs, and grown for 3-4 days before the next split.
Plate-out HEK-NaV1.8 cells (100 μl per well) into poly-D-lysine coated plates prior to experimentation as follows:—24 hours @ 3.5×10^4 cells/well (3.5×10^5 cells/ml) or using the technology of Select.
1. Equilibrate buffers at room temperature for 2 hours or at 37° C. for 30 minutes prior to experimentation. 2. Prepare Coumarin dye (see below) and store in dark. Prime the plate washer with Na^+ Free buffer and wash cells twice, Note: Plate washer deposits ˜30 μl residual buffer per well. Add 100 μL Coumarin (CC2-DMPE) solution (see below) to cells and incubate for 45 minutes at room temperature avoiding bright light. 3. Prepare Oxonol (DiSBAC2(3)) dye (see below): 4. Aspirate off Coumarin solution from the cells by washing in Na^+ Free buffer. 5. Add 30 μl compound then add 30 μl Oxonol solution to the cells and incubate for 45 minutes at room temperature in the dark (total well volume ˜90 μl). 6. Once the incubation is complete, the cells are ready to be assayed using the VIPR for sodium addback membrane potential.
The data was analyzed and reported as normalised ratios of intensities measured in the 460 nm and 580 nm channels. The process of calculating these ratios was performed as follows. An additional plate contained control solution with the same DisBAC2(3) concentrations as used in the cell plates, however no cells were included in the background plate. Intensity values at each wavelength were averaged for sample points 5-7 (initial) and 44-49 (final). These averages were subtracted from intensity values averaged over the same time periods in all assay wells. The initial ratio obtained from samples 3-8 (Ri) and the final ratio obtained from samples 45-50 (Rf) are defined as: […]
Final data are normalised to the starting ratio of each well and reported as Rf/Ri. This analysis is performed using a computerised specific programme designed for VIPR generated data. Rf/Ri ratio values are plotted using Excel Labstats (curve fit) or analysed via ECADA to determine an IC50 value for each compound.

T1 sequence (Q9Y5Y9 whole entry): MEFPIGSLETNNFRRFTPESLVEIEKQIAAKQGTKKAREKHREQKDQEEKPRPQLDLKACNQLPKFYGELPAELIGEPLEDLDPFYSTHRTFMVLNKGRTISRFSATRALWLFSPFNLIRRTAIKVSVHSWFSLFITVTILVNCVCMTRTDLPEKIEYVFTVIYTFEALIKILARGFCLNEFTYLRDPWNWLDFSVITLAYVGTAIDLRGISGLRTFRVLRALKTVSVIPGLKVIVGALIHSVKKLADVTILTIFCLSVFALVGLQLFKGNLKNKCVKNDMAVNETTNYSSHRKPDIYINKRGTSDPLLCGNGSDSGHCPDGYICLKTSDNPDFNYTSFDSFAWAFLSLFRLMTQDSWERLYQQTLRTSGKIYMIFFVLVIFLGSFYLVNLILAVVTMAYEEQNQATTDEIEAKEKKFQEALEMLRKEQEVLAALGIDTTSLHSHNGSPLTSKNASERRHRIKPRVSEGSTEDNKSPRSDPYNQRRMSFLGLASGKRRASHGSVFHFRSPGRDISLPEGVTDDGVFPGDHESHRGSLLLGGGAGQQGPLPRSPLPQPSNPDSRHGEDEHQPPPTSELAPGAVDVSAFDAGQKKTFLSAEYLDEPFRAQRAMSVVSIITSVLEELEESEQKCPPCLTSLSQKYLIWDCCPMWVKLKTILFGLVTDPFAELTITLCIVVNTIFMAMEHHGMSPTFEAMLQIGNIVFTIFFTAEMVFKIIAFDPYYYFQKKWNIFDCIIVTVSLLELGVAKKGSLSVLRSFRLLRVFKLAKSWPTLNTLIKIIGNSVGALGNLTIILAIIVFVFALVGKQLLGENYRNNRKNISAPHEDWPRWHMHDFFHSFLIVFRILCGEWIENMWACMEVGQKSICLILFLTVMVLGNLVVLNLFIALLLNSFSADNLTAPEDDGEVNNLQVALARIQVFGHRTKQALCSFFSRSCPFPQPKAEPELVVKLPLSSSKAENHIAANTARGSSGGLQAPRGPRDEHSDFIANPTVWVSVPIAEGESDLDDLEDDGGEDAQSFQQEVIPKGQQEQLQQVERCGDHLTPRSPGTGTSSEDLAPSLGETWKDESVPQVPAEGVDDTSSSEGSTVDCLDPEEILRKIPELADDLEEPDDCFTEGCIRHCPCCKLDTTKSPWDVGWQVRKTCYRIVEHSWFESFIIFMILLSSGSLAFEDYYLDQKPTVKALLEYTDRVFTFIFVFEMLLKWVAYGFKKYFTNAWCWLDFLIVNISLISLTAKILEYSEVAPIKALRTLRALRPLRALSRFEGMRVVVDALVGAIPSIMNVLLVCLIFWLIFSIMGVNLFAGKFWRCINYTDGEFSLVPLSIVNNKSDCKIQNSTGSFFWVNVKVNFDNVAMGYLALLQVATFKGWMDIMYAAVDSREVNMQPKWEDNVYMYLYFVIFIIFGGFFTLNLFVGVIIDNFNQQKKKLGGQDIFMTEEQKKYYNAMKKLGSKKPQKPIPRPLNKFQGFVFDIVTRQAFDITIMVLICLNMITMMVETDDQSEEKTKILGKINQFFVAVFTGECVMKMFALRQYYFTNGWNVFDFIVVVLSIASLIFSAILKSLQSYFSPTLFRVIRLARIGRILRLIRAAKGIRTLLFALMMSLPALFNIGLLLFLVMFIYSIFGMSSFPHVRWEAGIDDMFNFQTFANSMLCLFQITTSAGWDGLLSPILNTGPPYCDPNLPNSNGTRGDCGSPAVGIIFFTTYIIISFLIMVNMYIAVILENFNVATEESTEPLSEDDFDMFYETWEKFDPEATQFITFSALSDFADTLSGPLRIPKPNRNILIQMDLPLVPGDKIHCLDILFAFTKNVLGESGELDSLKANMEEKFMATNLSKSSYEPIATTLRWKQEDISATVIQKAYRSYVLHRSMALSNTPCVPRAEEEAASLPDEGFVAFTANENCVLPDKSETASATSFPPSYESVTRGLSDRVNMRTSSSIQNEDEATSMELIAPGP

Structure (SMILES)	pIC50
CNC(=S)c1ccc(-c2cc(Cl)cc(Cl)c2Cl)c(N)n1 [Example 1, 6-Amino-5-(2,3,5-trichloro-phenyl)-pyridine-2-carbothioic acid methylamide]	5.53
C/N=C(/c1ccc(-c2cc(Cl)cc(Cl)c2Cl)c(N)n1)N1CCOCC1 [Example 4, 6-(Methylimino-morpholin-4-yl-methyl)-3-(2,3,5-trichloro-phenyl)-pyridin-2-ylamine]	5.34
CC/N=C(\NCC)c1ccc(-c2cc(Cl)cc(Cl)c2Cl)c(N)n1 [Example 5, 6-Amino-N,N′-diethyl-5-(2,3,5-trichloro-phenyl)-pyridine-2-carboxamidine]	5.53
C/N=C(\NCC(F)(F)F)c1ccc(-c2cc(Cl)cc(Cl)c2Cl)c(N)n1 [Example 6, 6-Amino-N-methyl-5-(2,3,5-trichloro-phenyl)-N′-(2,2,2-trifluoro-ethyl)-pyridine-2-carboxamidine]	5.88
CNC(=N)c1ccc(-c2cc(Cl)cc(Cl)c2Cl)c(N)n1 [Example 7, 6-Amino-N-methyl-5-(2,3,5-trichloro-phenyl)-pyridine-2-carboxamidine]	5.62

Continued, values first:

pIC50	Structure (SMILES)
5.79	CN/C(=N\C#N)c1ccc(-c2cc(Cl)cc(Cl)c2Cl)c(N)n1 [Example 2, 6-Amino-N′-cyano-N-methyl-5-(2,3,5-trichlorophenyl)pyridine-2-carboximidamide]
5.74	C/N=C(\NC)c1ccc(-c2cc(Cl)cc(Cl)c2Cl)c(N)n1 [Example 3, 6-Amino-N,N′-dimethyl-5-(2,3,5-trichloro-phenyl)-pyridine-2-carboxamidine]
